Holding throughout (assay): cAMP accumulation
Common to all, as to format: cell-based
For orientation: Changes in cAMP serve as a functional read-out for many G protein-coupled receptors.

Assay [1] has as its target T1, hCTR L297A (Homo sapiens, UniProt P30988, L297A).
T1 construct: c-Myc (N); expressed in transfected cells
T1 sequence (P30988 25-474 L297A): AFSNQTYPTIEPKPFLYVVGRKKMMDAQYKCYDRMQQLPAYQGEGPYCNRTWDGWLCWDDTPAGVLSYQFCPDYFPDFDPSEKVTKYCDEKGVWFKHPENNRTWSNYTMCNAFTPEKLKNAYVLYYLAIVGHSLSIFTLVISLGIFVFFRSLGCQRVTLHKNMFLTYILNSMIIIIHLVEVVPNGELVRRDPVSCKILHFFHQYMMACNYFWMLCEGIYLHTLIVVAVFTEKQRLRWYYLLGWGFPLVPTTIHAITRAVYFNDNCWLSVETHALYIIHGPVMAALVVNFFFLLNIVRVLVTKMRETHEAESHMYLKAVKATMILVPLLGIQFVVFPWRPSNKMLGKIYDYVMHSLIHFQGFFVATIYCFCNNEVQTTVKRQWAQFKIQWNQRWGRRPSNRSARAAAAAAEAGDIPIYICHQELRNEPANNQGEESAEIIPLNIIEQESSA
The following applies: mean ± S.E.M.; for Emax: cAMP maximal response, SEM; for EC50: cAMP, CV1-FlpIn cells, 30 min, IBMX. The gist of the method: (§1)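 For each mutant, cAMP generated during a 30 min ligand exposure with IBMX is reported as a fraction of the 100 μM forskolin maximum. Cells were ethanol-extracted and dried at room temperature prior to measurement.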

Assay [2] has as its target T2, hCTR R362A (Homo sapiens, UniProt P30988, R362A).
T2 construct: expressed in transfected cells
T2 sequence (P30988 25-474 R362A): T1 sequence (P30988 25-474 L297A) with A273L, R338A
The following applies: for Emax: read-out: Emax (% WT), SEM; for EC50: cAMP, CV1-FlpIn cells, 30 min, IBMX. The gist of the method: as §1

For assay [3], the target named is T3, hCTR V357A (Homo sapiens, UniProt P30988, V357A).
T3 construct: c-Myc (N); expressed in transfected cells
T3 sequence (P30988 25-474 V357A): T1 sequence (P30988 25-474 L297A) with A273L, V333A
The following applies: mean ± S.E.M.; for Emax: cAMP maximal response, SEM; for EC50: cAMP, CV1-FlpIn cells, 30 min, IBMX. The gist of the method:
as §1

Assay [4] deals with T4, hCTR WT (Homo sapiens, UniProt P30988).
T4 construct: expressed in transfected cells
T4 sequence (P30988 25-474): T1 sequence (P30988 25-474 L297A) with A273L
The following applies: mean ± S.E.M.; for Emax: cAMP maximal response, SEM; for EC50: cAMP, CV1-FlpIn cells, 30 min, IBMX. The gist of the method:
as §1

The target in assay [5] is T5, hCTR Y374A (Homo sapiens, UniProt P30988, Y374A).
T5 construct: c-Myc (N); expressed in transfected cells
T5 sequence (P30988 25-474 Y374A): T1 sequence (P30988 25-474 L297A) with A273L, Y350A
Conditions: mean ± S.E.M.; for Emax: cAMP maximal response, SEM; for EC50: cAMP, CV1-FlpIn cells, 30 min, IBMX. The gist of the method:
as §1

[6] abbreviates: R362A, cAMP maximal response, mean ± S.E.M.

Changes are numbered by the printed parent chain. Read-outs that look alike come from different tables or passages of the source. Where a SMILES comes first, the peptide text is derived from it. Bridges are numbered along the chain shown (N, C = ends).

Broadly, the Emax is the maximal effect, on the per cent scale that the assay sets. A word on the EC50: it is the concentration that produces a half-maximal response.

Consider `CC[C@H](C)[C@H](NC(=O)[C@H](C)NC(=O)[C@@H](NC(=O)[C@H](CCC(N)=O)NC(=O)[C@@H]1CCCN1C(=O)[C@H](Cc1ccccc1)NC(=O)[C@@H](NC(=O)[C@H](Cc1c[nH]cn1)NC(=O)[C@H](Cc1ccccc1)NC(=O)[C@H](CCCCN)NC(=O)[C@H](CC(N)=O)NC(=O)[C@H](Cc1ccccc1)NC(=O)[C@H](CC(=O)O)NC(=O)[C@H](CCC(N)=O)NC(=O)[C@@H](NC(=O)[C@H](Cc1ccc(O)cc1)NC(=O)[C@@H](NC(=O)CNC(=O)[C@H](CC(C)C)NC(=O)[C@H](CCSC)NC(=O)[C@@H]1CSSC[C@H](N)C(=O)NCC(=O)N[C@@H](CC(N)=O)C(=O)N[C@@H](CC(C)C)C(=O)N[C@@H](CO)C(=O)N[C@@H]([C@@H](C)O)C(=O)N1)[C@@H](C)O)[C@@H](C)O)[C@@H](C)O)[C@@H](C)O)C(=O)NCC(=O)N[C@H](C(=O)NCC(=O)N[C@@H](C)C(=O)N1CCC[C@H]1C(N)=O)C(C)C` [hCT], for which the Emax came to 91 ± 6% in assay [1]; 125 ± 9% in assay [2]; 137 ± 6% in assay [3]; 100 ± 2% in assay [4]; 83.2 ± 5% in assay [5].

Turning to `CC(C)C[C@H](NC(=O)CNC(=O)[C@H](C)NC(=O)[C@H](CC(C)C)NC(=O)[C@H](CCCNC(=N)N)NC(=O)[C@H](Cc1cnc[nH]1)NC(=O)[C@@H](NC(=O)[C@@H](NC(=O)[C@@H]1CSSC[C@H](NC(=O)[C@H](C)N)C(=O)N[C@@H](CC(=O)O)C(=O)N[C@@H]([C@@H](C)O)C(=O)N[C@@H](C)C(=O)N[C@@H]([C@@H](C)O)C(=O)N1)C(C)C)[C@@H](C)O)C(=O)N[C@@H](CC(C)C)C(=O)N[C@@H](CO)C(=O)N[C@@H](CCCNC(=N)N)C(=O)N[C@@H](CO)C(=O)NCC(=O)NCC(=O)N[C@H](C(=O)N[C@H](C(=O)N[C@@H](CCCCN)C(=O)N[C@@H](CC(N)=O)C(=O)N[C@@H](CC(N)=O)C(=O)N[C@@H](Cc1ccccc1)C(=O)N[C@H](C(=O)N1CCC[C@H]1C(=O)N[C@H](C(=O)N[C@@H](CC(N)=O)C(=O)N[C@H](C(=O)NCC(=O)N[C@@H](CO)C(=O)N[C@@H](CCCCN)C(=O)N[C@@H](C)C(=O)N[C@@H](Cc1ccccc1)C(N)=O)C(C)C)[C@@H](C)O)C(C)C)C(C)C)C(C)C` [hαCGRP], the Emax in assay [1] turned out to be 88 ± 14%; in assay [2] (setting [6]), 51 ± 9%; in assay [3] it was 82 ± 10%; in assay [4], 100 ± 7%; in assay [5] it was 82 ± 12%. In addition, the concentration for a half-maximal effect (EC50) in assay [1] was 36.3 nM; in assay [2] (R362A, mean ± S.E.M.), 17.8 nM; in assay [3] it was 29.5 nM; in assay [4], 11 nM; in assay [5], 25.1 nM.

For `CSCC[C@H](NC(=O)CNC(=O)[C@H](CO)NC(=O)[C@H](Cc1ccccc1)NC(=O)[C@H](CCCNC(=N)N)NC(=O)[C@H](Cc1c[nH]cn1)NC(=O)[C@H](Cc1ccccc1)NC(=O)[C@H](CC(N)=O)NC(=O)[C@H](CC(N)=O)NC(=O)[C@H](CC(C)C)NC(=O)[C@H](CC(N)=O)NC(=O)[C@H](CCCNC(=N)N)NC(=O)[C@H](Cc1c[nH]c2ccccc12)NC(=O)[C@H](Cc1ccc(O)cc1)NC(=O)[C@H](C)NC(=O)[C@H](CO)NC(=O)[C@H](CC(C)C)NC(=O)[C@@H](NC(=O)[C@@H]1CSSC[C@H](N)C(=O)N[C@@H](CO)C(=O)N[C@@H](CC(N)=O)C(=O)N[C@@H](CC(C)C)C(=O)N[C@@H](CO)C(=O)N[C@@H]([C@@H](C)O)C(=O)N1)C(C)C)C(=O)NCC(=O)N[C@@H](Cc1ccccc1)C(=O)NCC(=O)N1CCC[C@H]1C(=O)N[C@@H](CCC(=O)O)C(=O)N[C@H](C(=O)N1CCC[C@H]1C(N)=O)[C@@H](C)O` [pCT] (H-CSNLSTCVLSAYWRNLNNFHRFSGMGFGPETP-NH2; disulfide 1-7), the maximal response (Emax) came to 127 ± 8% in assay [1]; 138 ± 9% in assay [2] (setting [6]); 154 ± 17% in assay [3]; 100 ± 2% in assay [4]; 90 ± 9% in assay [5]. The concentration giving a half-maximal response (EC50) is 0.1 ± 0.002 nM in assay [1]; 0.182 nM in assay [2] (R362A, mean ± S.E.M.); 0.151 nM in assay [3]; 0.0398 nM in assay [4]; 0.02 nM in assay [5].

Turning to `CC(C)C[C@H](NC(=O)[C@H](CC(N)=O)NC(=O)[C@H](CC(N)=O)NC(=O)[C@H](CO)NC(=O)[C@H](CO)NC(=O)[C@H](CCCNC(=N)N)NC(=O)[C@@H](NC(=O)[C@H](CC(C)C)NC(=O)[C@H](Cc1ccccc1)NC(=O)[C@H](CC(N)=O)NC(=O)[C@H](C)NC(=O)[C@H](CC(C)C)NC(=O)[C@H](CCCNC(=N)N)NC(=O)[C@H](CCC(N)=O)NC(=O)[C@@H](NC(=O)[C@H](C)NC(=O)[C@@H]1CSSC[C@H](NC(=O)[C@@H](N)CCCCN)C(=O)N[C@@H](CC(N)=O)C(=O)N[C@@H]([C@@H](C)O)C(=O)N[C@@H](C)C(=O)N[C@@H]([C@@H](C)O)C(=O)N1)[C@@H](C)O)C(C)C)C(=O)NCC(=O)N1CCC[C@H]1C(=O)N[C@H](C(=O)N[C@@H](CC(C)C)C(=O)N1CCC[C@H]1C(=O)N1CCC[C@H]1C(=O)N[C@H](C(=O)N[C@@H](CC(N)=O)C(=O)N[C@H](C(=O)NCC(=O)N[C@@H](CO)C(=O)N[C@@H](CC(N)=O)C(=O)N[C@H](C(=O)N[C@@H](Cc1ccc(O)cc1)C(N)=O)[C@@H](C)O)C(C)C)[C@@H](C)O)C(C)C` [rAmy], the maximum response (Emax) in assay [1] stood at 85 ± 10%; in assay [2], 88 ± 12%; in assay [3] it was 88 ± 10%; in assay [4], 100 ± 4%; in assay [5], 92 ± 9%.

Values taken from article PMC5908784, “Extracellular loops 2 and 3 of the calcitonin receptor selectively modify agonist binding and efficacy” (Biochemical Pharmacology, 2018).
